{"source": "ChEMBL document CHEMBL4043087", "about": "(J Med Chem, 2017)", "key": {"Mus musculus": {"tested_on": "Mus musculus", "assay": "Anesthetic activity in mouse model assessed as loss of righting reflex", "assay_type": "functional"}, "[1]": {"assay": "Toxicity in mouse", "assay_type": "organism-based", "conditions": "in vivo"}, "[2]": {"assay": "Therapeutic index, ratio of LD50 for toxicity in mouse to ED50 for anesthetic effect in mouse"}, "Rattus norvegicus": {"tested_on": "Rattus norvegicus", "assay": "Anesthetic activity in Sprague-Dawley rat assessed as loss of righting reflex", "assay_type": "functional"}, "[3]": {"assay": "Toxicity in Sprague-Dawley rat", "conditions": "in vivo"}, "[4]": {"assay": "Therapeutic index, ratio of LD50 for toxicity in Sprague-Dawley rat to ED50 for anesthetic effect in Sprague-Dawley rat", "conditions": "read-out: Ratio LD50/ED50"}, "Canis familiaris [5]": {"tested_on": "Canis familiaris", "assay": "Anesthetic activity in Beagle dog assessed as onset time for loss of righting reflex at 12.5 mg/kg, administered as bolus dose", "assay_type": "functional, Canis lupus familiaris"}, "Canis familiaris [6]": {"tested_on": "Canis familiaris", "assay": "Anesthetic activity in Beagle dog assessed as anesthetic duration time at 12.5 mg/kg, administered as bolus dose", "assay_type": "functional, Canis lupus familiaris"}, "Canis familiaris [7]": {"tested_on": "Canis familiaris", "assay": "Anesthetic activity in Beagle dog assessed as recovery time at 12.5 mg/kg, administered as bolus dose", "assay_type": "functional, Canis lupus familiaris"}, "Sus scrofa [8]": {"tested_on": "Sus scrofa", "assay": "Anesthetic activity in mini pig assessed as onset time for loss of righting reflex at 4 mg/kg, administered as bolus dose", "assay_type": "functional"}, "Sus scrofa [9]": {"tested_on": "Sus scrofa", "assay": "Anesthetic activity in mini pig assessed as anesthetic duration time at 4 mg/kg, administered as bolus dose", "assay_type": "functional"}, "Sus scrofa [10]": {"tested_on": "Sus scrofa", "assay": "Anesthetic activity in mini pig assessed as recovery time at 4 mg/kg, administered as bolus dose", "assay_type": "functional"}, "Canis familiaris [11]": {"tested_on": "Canis familiaris", "assay": "Anesthetic activity in Beagle dog assessed as onset time for loss of righting reflex at 25 mg/kg, administered as bolus dose", "assay_type": "functional, Canis lupus familiaris"}, "Canis familiaris [12]": {"tested_on": "Canis familiaris", "assay": "Anesthetic activity in Beagle dog assessed as anesthetic duration time at 25 mg/kg, administered as bolus dose", "assay_type": "functional, Canis lupus familiaris"}, "Canis familiaris [13]": {"tested_on": "Canis familiaris", "assay": "Anesthetic activity in Beagle dog assessed as recovery time at 25 mg/kg, administered as bolus dose", "assay_type": "functional, Canis lupus familiaris"}, "Sus scrofa [14]": {"tested_on": "Sus scrofa", "assay": "Anesthetic activity in mini pig assessed as onset time for loss of righting reflex at 5 mg/kg, administered as bolus dose", "assay_type": "functional"}, "Sus scrofa [15]": {"tested_on": "Sus scrofa", "assay": "Anesthetic activity in mini pig assessed as anesthetic duration time at 5 mg/kg, administered as bolus dose", "assay_type": "functional"}, "Sus scrofa [16]": {"tested_on": "Sus scrofa", "assay": "Anesthetic activity in mini pig assessed as recovery time at 5 mg/kg, administered as bolus dose", "assay_type": "functional"}, "Canis familiaris [17]": {"tested_on": "Canis familiaris", "assay": "Anesthetic activity in Beagle dog assessed as onset time for loss of righting reflex at 75 mg/kg, administered as bolus dose", "assay_type": "functional, Canis lupus familiaris"}, "Canis familiaris [18]": {"tested_on": "Canis familiaris", "assay": "Anesthetic activity in Beagle dog assessed as anesthetic duration time at 75 mg/kg, administered as bolus dose", "assay_type": "functional, Canis lupus familiaris"}, "Canis familiaris [19]": {"tested_on": "Canis familiaris", "assay": "Anesthetic activity in Beagle dog assessed as recovery time at 75 mg/kg, administered as bolus dose", "assay_type": "functional, Canis lupus familiaris"}, "Sus scrofa [20]": {"tested_on": "Sus scrofa", "assay": "Anesthetic activity in mini pig assessed as onset time for loss of righting reflex at 22.5 mg/kg, administered as bolus dose", "assay_type": "functional"}, "Sus scrofa [21]": {"tested_on": "Sus scrofa", "assay": "Anesthetic activity in mini pig assessed as anesthetic duration time at 22.5 mg/kg, administered as bolus dose", "assay_type": "functional"}, "Sus scrofa [22]": {"tested_on": "Sus scrofa", "assay": "Anesthetic activity in mini pig assessed as recovery time at 22.5 mg/kg, administered as bolus dose", "assay_type": "functional"}}, "data": [{"smiles": "C[C@@H](c1cccc([C@H](C)C2CC2)c1OCOP(=O)([O-])[O-])C1CC1.[Na+].[Na+]", "values": [{"measurement": "ED50", "setting": "Mus musculus", "value": 11.7, "unit": "mg/kg"}, {"measurement": "LD50", "setting": "[1]", "value": 42.5, "unit": "mg/kg"}, {"measurement": "Ratio LD50/ED50", "setting": "[2]", "value": 3.6}, {"measurement": "ED50", "setting": "Rattus norvegicus", "value": 7.34, "unit": "mg/kg"}, {"measurement": "LD50", "setting": "[3]", "value": 40.4, "unit": "mg/kg"}, {"measurement": "selectivity ratio", "setting": "[4]", "value": 5.51}, {"measurement": "Time", "setting": "Canis familiaris [5]", "value": 0.9, "unit": "min"}, {"measurement": "Time", "setting": "Canis familiaris [6]", "value": 70.2, "unit": "min"}, {"measurement": "Time", "setting": "Canis familiaris [7]", "value": 3.3, "unit": "min"}, {"measurement": "Time", "setting": "Sus scrofa [8]", "value": 3, "unit": "min"}, {"measurement": "Time", "setting": "Sus scrofa [9]", "value": 65.8, "unit": "min"}, {"measurement": "Time", "setting": "Sus scrofa [10]", "value": 9.6, "unit": "min"}]}, {"smiles": "CC(C)c1cccc([C@H](C)C2CC2)c1OCOP(=O)([O-])[O-].[Na+].[Na+]", "values": [{"measurement": "ED50", "setting": "Mus musculus", "value": 20.4, "unit": "mg/kg"}, {"measurement": "LD50", "setting": "[1]", "value": 86.5, "unit": "mg/kg"}, {"measurement": "Ratio LD50/ED50", "setting": "[2]", "value": 4.2}, {"measurement": "ED50", "setting": "Rattus norvegicus", "value": 12.9, "unit": "mg/kg"}, {"measurement": "selectivity ratio", "setting": "[4]", "value": 4.74}, {"measurement": "Time", "setting": "Canis familiaris [11]", "value": 0.7, "unit": "min"}, {"measurement": "Time", "setting": "Canis familiaris [12]", "value": 72.2, "unit": "min"}, {"measurement": "Time", "setting": "Canis familiaris [13]", "value": 11.2, "unit": "min"}, {"measurement": "Time", "setting": "Sus scrofa [14]", "value": 1.6, "unit": "min"}, {"measurement": "Time", "setting": "Sus scrofa [15]", "value": 68.2, "unit": "min"}, {"measurement": "Time", "setting": "Sus scrofa [16]", "value": 4.8, "unit": "min"}]}, {"smiles": "CC(C)c1cccc(C(C)C)c1OCOP(=O)([O-])[O-].[Na+].[Na+]", "note": "[FOSPROPOFOL DISODIUM]", "values": [{"measurement": "ED50", "setting": "Mus musculus", "value": 95, "unit": "mg/kg"}, {"measurement": "LD50", "setting": "[1]", "value": 220, "unit": "mg/kg"}, {"measurement": "Ratio LD50/ED50", "setting": "[2]", "value": 2.3}, {"measurement": "ED50", "setting": "Rattus norvegicus", "value": 41, "unit": "mg/kg"}, {"measurement": "LD50", "setting": "[3]", "value": 189, "unit": "mg/kg"}, {"measurement": "selectivity ratio", "setting": "[4]", "value": 4.61}, {"measurement": "Time", "setting": "Canis familiaris [17]", "value": 2.1, "unit": "min"}, {"measurement": "Time", "setting": "Canis familiaris [18]", "value": 80.4, "unit": "min"}, {"measurement": "Time", "setting": "Canis familiaris [19]", "value": 7.3, "unit": "min"}, {"measurement": "Time", "setting": "Sus scrofa [20]", "value": 1.6, "unit": "min"}, {"measurement": "Time", "setting": "Sus scrofa [21]", "value": 72.6, "unit": "min"}, {"measurement": "Time", "setting": "Sus scrofa [22]", "value": 6, "unit": "min"}]}]}
